# Test results taken from patent US10278975B2, “Serine/threonine kinase inhibitors” (GENENTECH, INC., priority 2013, dated 2019).
# Test system: PMA-stimulated P90RSK(Ser380) phosphorylation in HepG2 cells
# Experiment: Cellular P90RSK(Ser380) Phosphorylation Assay
# Assay type: cell-based
# Details: Homo sapiens, 1.5 hour compound incubation, PMA 100 ng/mL 30 min, normalized to GAPDH, read-out: P-P90RSK (S380) IC50
# Method: Cellular P90RSK(Ser380) Phosphorylation Assay
# Inhibition of PMA-stimulated P90RSK(Ser380) phosphorylation was determined by the following in vitro cellular mechanistic assay, which comprises incubating cells with a compound for 1.5 hours and quantifying fluorescent pP90RSK(Ser380) signal on fixed cells and normalizing to GAPDH signal.
# Materials and Methods: HepG2 cells were obtained from ATCC and grown in DMEM supplemented with 10% fetal bovine serum. Cells were plated in 96-well plates at 35,000 cells/well and allowed to attach overnight at 37° C./5% CO2. Diluted compounds were then added at a final concentration of 0.5% DMSO. After 1.5 hour compound incubation, cells were stimulated with the addition of PMA (phorbol 12-myristate 13-acetate) at a final concentration of 100 ng/mL; the PMA stimulation was a 30-minute incubation at 37° C./5% CO2. After the 30-minute PMA stimulation, cells were washed with PBS and fixed in 3.7% formaldehyde in PBS at room temperature for 15-20 minutes. This was followed by another wash in PBS and then permeabilization in 100% MeOH at room temperature for 10-15 minutes. Following the permeabilization incubation, cells were washed in PBS/0.05% Tween-20, followed by a block in Odyssey blocking buffer (LI-COR Biosciences) for at least 1 hour. Antibodies to phosphorylated P90RSK(Ser380) (Cell Signaling #9335, rabbit monoclonal) and GAPDH (Fitzgerald 10R-G109a, mouse monoclonal) were added to the cells and incubated overnight at 4° C. pP90RSK(Ser380) antibody was used at a 1:250 dilution; GAPDH was used at a 1:10,000 dilution. After washing with PBS/0.05% Tween-20, the cells were incubated with fluorescently-labeled secondary antibodies (Anti-rabbit-Alexa Flour680, Invitrogen Cat#A21109; Anti-mouse-IRDye800CW, Rockland Inc. Cat#610-131-121) for 1 hour. Both secondary antibodies were used at a 1:1000 dilution. Cells were then washed and analyzed for fluorescence at both wavelengths using the Odyssey Infrared Imaging System (LI-COR Biosciences). Phosphorylated P90RSK(Ser380) signal was normalized to GAPDH signal. Representative date is in TABLE II (infra).
row,SMILES,IC50 [nM]
1,"Cn1nccc1Nc1nccc(-c2cc3n4c(nnc4c2)[C@@H](Cc2ccccc2)CO3)n1 [(R) I-15, 4-(3-benzyl-3,4-dihydro-5-oxa-1,2,2a^1-triazaacenaphthylen-7-yl)-N-(1-methyl-1H-pyrazol-5-yl)pyrimidin-2-amine]",2.91
2,"Cn1nccc1Nc1cc(-c2cc3n4c(nnc4c2)[C@@H](Cc2ccc(Cl)cc2)CO3)ccn1 [(R) I-48, 4-(3-(4-chlorobenzyl)-3,4-dihydro-5-oxa-1,2,2a^1-triazaacenaphthylen-7-yl)-N-(1-methyl-1H-pyrazol-5-yl)pyridin-2-amine]",1.73
3,"Cn1nccc1Nc1nccc(-c2cc3n4c(nnc4c2)[C@H](Oc2ccc(F)cc2)CCO3)n1 [(R) I-66, 4-(9-(4-fluorophenoxy)-8,9-dihydro-7H-6-oxa-1,2,2a^1-triazabenzo[cd]azulen-4-yl)-N-(1-methyl-1H-pyrazol-5-yl)pyrimidin-2-amine]",1
4,"Cn1nccc1Nc1nccc(-c2cc3n4c(nnc4c2)[C@@H](Cn2cc(C(F)(F)F)cn2)CCO3)n1 [(R) I-73, N-(1-methyl-1H-pyrazol-5-yl)-4-(9-((4-(trifluoromethyl)-1H-pyrazol-1-yl)methyl)-8,9-dihydro-7H-6-oxa-1,2,2a^1-triazabenzo[cd]azulen-4-yl)pyrimidin-2-amine]",4.47
5,"Cn1nccc1Nc1cc(-c2cc3n4c(nnc4c2)[C@@H](Cc2ccccc2)CN3)ccn1 [(S) I-7, 4-(3-benzyl-4,5-dihydro-3H-1,2,2a^1,5-tetraazaacenaaphthylen-7-yl)-N-(1-methyl-1H-pyrazol-5-yl)pyridin-2-amine]",3.87
6,"Cn1nccc1Nc1nccc(-c2cc3n4c(nnc4c2)[C@@H](Cc2ccc(F)cc2)CN3)n1 [(S) I-21, 4-(3-(4-fluorobenzyl)-4,5-dihydro-3H-1,2,2a^1,5-tetraazaacenaphthylen-7-yl)-N-(1-methyl-1H-pyrazol-5-yl)pyrimidin-2-amine]",4.32
7,"CN1C(=O)C[C@H](Cc2ccc(Cl)cc2)c2nnc3cc(-c4ccnc(Nc5ccnn5C)n4)cc1n23 [(S) I-22, 9-(4-chlorobenzyl)-6-methyl-4-(2-((1-methyl-1H-pyrazol-5-yl)amino)pyrimidin-4-yl)-8,9-dihydro-1,2,2a^1,6-tetraazabenzo[cd]azulen-7(6H)-one]",1.41
8,"Cn1nccc1Nc1nccc(-c2cc3n4c(nnc4c2)[C@@H](COCc2ccccc2)CCO3)n1 [(S) I-29, 4-(9-((benzyloxy)methyl)-8,9-dihydro-7H-6-oxa-1,2,2a^1-triazabenzo[cd]azulen-4-yl)-N-(1-methyl-1H-pyrazol-5-yl)pyrimidin-2-amine]",7.94
9,"Cn1nccc1Nc1nccc(-c2cc3n4c(nnc4c2)[C@@H](Cc2ccc(Cl)cc2)CCO3)n1 [(S) I-36, 4-(9-(4-chlorobenzyl)-8,9-dihydro-7H-6-oxa-1,2,2a^1-triazabenzo[cd]azulen-4-yl)-N-(1-methyl-1H-pyrazol-5-yl)pyrimidin-2-amine]",2.45
10,"CN1C(=O)N(Cc2ccccc2)c2nnc3cc(-c4ccnc(Nc5ccnn5C)n4)cc1n23 [Compound I-28, 3-benzyl-5-methyl-7-(2-((1-methyl-1H-pyrazol-5-yl)amino)pyrimidin-4-yl)-3H-1,2,2a^1,3,5-pentaazaacenaphthylen-4(5H)-one]",5.05
